Test results reported in patent US12351570B2 (MERCK PATENT GMBH, priority 2018, dated 2025).
pIC50: −log10 of the molar value. Counter-ions that a name gives are not always drawn.

test system: MDA-MB-231 cells; assay: Extracellular lactate production inhibition after 4 h, MDA-MB-231; conditions: Homo sapiens, MDA-MB-231

pIC50 | Structure (SMILES)
6.00 to 7.00 | CCOc1cc(C#Cc2ccccc2NS(=O)(=O)c2c(C)ccc3cccnc23)cnc1C(=O)O [Compound 188, 3-ethoxy-5-{2-[2-(7-methylquinoline-8-sulfonamido)phenyl]ethynyl}pyridine-2-carboxylic acid]
6.00 to 7.00 | COc1ccccc1-c1ccccc1CN(C=O)c1ccccc1C#Cc1ccc(C(=O)O)nc1 [Compound 189, 5-(2-{2-[N-({2′-methoxy-[1,1′-biphenyl]-2-yl}methyl)formamido]phenyl}-ethynyl)pyridine-2-carboxylic acid]
7.00 to 8.00 | COc1ccc(S(=O)(=O)Nc2cc(Cl)c(Cl)cc2C#Cc2ccc(C(=O)O)nc2)c2ncccc12 [Compound 190, 5-{2-[4,5-dichloro-2-(5-methoxyquinoline-8-sulfonamido)phenyl]ethynyl}pyridine-2-carboxylic acid]
7.00 to 8.00 | COc1ccccc1-c1ccc(CN(C=O)c2ccccc2C#Cc2ccc(C(=O)O)nc2)cc1 [Compound 191, 5-(2-{2-[N-({2′-methoxy-[1,1′-biphenyl]-4-yl}methyl)formamido]phenyl}ethynyl)-pyridine-2-carboxylic acid]
8.00 to 9.00 | COc1cc(C(=O)O)ncc1C#Cc1ccccc1N(C=O)Cc1ccc(-c2ccccc2)cc1 [Compound 192, 5-(2-{2-[N-({[1,1′-biphenyl]-4-yl}methyl)formamido]phenyl}ethynyl)-4-methoxypyridine-2-carboxylic acid]
4.00 to 6.00 | Cc1ccc2cccnc2c1S(=O)(=O)Nc1ccccc1C#Cc1cnc(C(=O)O)cc1O [Compound 193, 4-hydroxy-5-{2-[2-(7-methylquinoline-8-sulfonamido)phenyl]ethynyl}pyridine-2-carboxylic acid]
6.00 to 7.00 | Cc1cc(C#Cc2ccccc2N(C=O)Cc2ccc(-c3ccccc3)cc2)cnc1C(=O)O [Compound 194, 5-(2-{2-[N-({[1,1′-biphenyl]-4-yl}methyl)formamido]phenyl}ethynyl)-3-methylpyridine-2-carboxylic acid]
6.00 to 7.00 | Cc1cc(C#Cc2ccccc2N(C=O)Cc2ccc3ccccc3c2)cnc1C(=O)O [Compound 195, 3-methyl-5-[2-(2-{N-[(naphthalen-2-yl)methyl]formamido}phenyl)ethynyl]-pyridine-2-carboxylic acid]
4.00 to 6.00 | O=CN(Cc1cnc2ccccc2c1)c1ccccc1C#Cc1ccc(C(=O)O)nc1 [Compound 196, 5-[2-(2-{N-[(quinolin-3-yl)methyl]formamido}phenyl)ethynyl]-pyridine-2-carboxylic acid]
6.00 to 7.00 | COc1ccc(C#Cc2ccc(C(=O)O)nc2)c(NS(=O)(=O)c2ccc(OC)c3cccnc23)c1 [Compound 197, 5-{2-[4-methoxy-2-(5-methoxyquinoline-8-sulfonamido)phenyl]ethynyl}pyridine-2-carboxylic acid]
6.00 to 7.00 | Cn1c2ccccc2c2c(S(=O)(=O)Nc3ccccc3C#Cc3ccc(C(=O)O)nc3)cccc21 [Compound 198, 5-{2-[2-(9-methyl-9H-carbazole-4-sulfonamido)phenyl]ethynyl}pyridine-2-carboxylic acid]
7.00 to 8.00 | COc1ccc(S(=O)(=O)Nc2cc(Cl)ccc2C#Cc2ccc(C(=O)O)nc2)c2ncccc12 [Compound 199, 5-{2-[4-chloro-2-(5-methoxyquinoline-8-sulfonamido)phenyl]ethynyl}pyridine-2-carboxylic acid]
6.00 to 7.00 | O=CN(CCc1cccc2ccccc12)c1ccccc1C#Cc1ccc(C(=O)O)nc1 [Compound 200, 5-[2-(2-{N-[2-(naphthalen-1-yl)ethyl]-formamido}phenyl)ethynyl]pyridine-2-carboxylic acid]
7.00 to 8.00 | COc1cc(CN(C=O)c2ccccc2C#Cc2ccc(C(=O)O)nc2)ccc1-c1ccccc1 [Compound 201, 5-(2-{2-[N-({2-methoxy-[1,1′-biphenyl]-4-yl}methyl)formamido]phenyl}-ethynyl)pyridine-2-carboxylic acid]
7.00 to 8.00 | O=CN(Cc1ccccc1C#Cc1ccc(C(=O)O)nc1)c1ccc2ccccc2c1 [Compound 202, 5-[2-(2-{[N-(naphthalen-2-yl)formamido]methyl}phenyl)-ethynyl]pyridine-2-carboxylic acid]
6.00 to 7.00 | O=CN(Cc1cccc(Oc2ccccc2)c1)c1ccccc1C#Cc1ccc(C(=O)O)nc1 [Compound 203, 5-[2-(2-{N-[(3-phenoxyphenyl)methyl]-formamido}phenyl)ethynyl]pyridine-2-carboxylic acid]
7.00 to 8.00 | Cc1ccc2cccnc2c1S(=O)(=O)Nc1cc(Cl)c(Cl)cc1C#Cc1ccc(C(=O)O)nc1 [Compound 204, 5-{2-[4,5-dichloro-2-(7-methylquinoline-8-sulfonamido)phenyl]ethynyl}pyridine-2-carboxylic acid]
8.00 to 9.00 | CNc1cc(C#Cc2ccccc2NS(=O)(=O)c2c(C)ccc3cccnc23)cnc1C(=O)O [Compound 206, 3-(methylamino)-5-{2-[2-(7-methylquinoline-8-sulfonamido)phenyl]-ethynyl}pyridine-2-carboxylic acid]
7.00 to 8.00 | C=C(C)c1cc(C(=O)O)ncc1C#Cc1ccccc1NS(=O)(=O)c1ccc(OC)c2cccnc12 [Compound 207]
6.00 to 7.00 | COc1ccc(S(=O)(=O)Nc2ccccc2C#Cc2cnc(C(=O)O)c3ccccc23)c2ncccc12 [Compound 209, 4-{2-[2-(5-methoxyquinoline-8-sulfonamido)phenyl]ethynyl}isoquinoline-1-carboxylic acid]
7.00 to 8.00 | CCOc1ccc2cccnc2c1S(=O)(=O)Nc1ccccc1C#Cc1ccc(C(=O)O)nc1 [Compound 210, 5-{2-[2-(7-ethoxyquinoline-8-sulfonamido)phenyl]ethynyl}pyridine-2-carboxylic acid]
7.00 to 8.00 | CC(C)Oc1ccc2cccnc2c1S(=O)(=O)Nc1ccccc1C#Cc1ccc(C(=O)O)nc1 [Compound 211, 5-(2-{2-[7-(propan-2-yloxy)quinoline-8-sulfonamido]phenyl}ethynyl)pyridine-2-carboxylic acid]
8.00 to 9.00 | CNc1cc(C#Cc2ccccc2NS(=O)(=O)c2ccc(OC)c3cccnc23)cnc1C(=O)O [Compound 212, 5-{2-[2-(5-methoxyquinoline-8-sulfonamido)phenyl]ethynyl}-3-(methylamino)pyridine-2-carboxylic acid]
7.00 to 8.00 | COc1cc(-c2ccccc2)ccc1CN(C=O)c1ccccc1C#Cc1ccc(C(=O)O)nc1 [Compound 213, 5-(2-{2-[N-({3-methoxy-[1,1′-biphenyl]-4-yl}methyl)formamido]phenyl}-ethynyl)pyridine-2-carboxylic acid]
8.00 to 9.00 | COc1ccc(S(=O)(=O)Nc2ccc(I)cc2C#Cc2ccc(C(=O)O)nc2)c2ncccc12 [Compound 214, 5-{2-[5-iodo-2-(5-methoxyquinoline-8-sulfonamido)phenyl]ethynyl}pyridine-2-carboxylic acid]
8.00 to 9.00 | COc1cc(C(=O)O)ncc1C#Cc1ccccc1N(C=O)Cc1ccc(-c2ccccc2OC)cc1 [Compound 215, 4-methoxy-5-(2-{2-[N-({2′-methoxy-[1,1′-biphenyl]-4-yl}methyl)formamido]phenyl}-ethynyl)pyridine-2-carboxylic acid]

same assay, conditions: Table 3; group class A-D; the table does not say which assay or cell line ("the assays described above")

Structure (SMILES) | pIC50
O=CN(Cc1ccc2ncccc2c1)c1ccccc1C#Cc1ccc(C(=O)O)nc1 [Compound 205, trifluoroacetate] | 4.00 to 6.00
